From US9902728B2, “Pyrrolo and pyrazolopyrimidines as ubiquitin-specific protease 7 inhibitors” (Forma Therapeutics, Inc., priority 2014, dated 2018) come the findings set out here.

SMILES strings stand for the structures. Some results are limits rather than exact numbers.

One experiment deals with T1, USP7 (Homo sapiens, UniProt Q93009).
T1 construct: USP7, construct USP7 (208-1102) 6*His, Viva Biotech; 6xHis (C); purchased Viva Biotech
T1 sequence (Q93009 208-1102): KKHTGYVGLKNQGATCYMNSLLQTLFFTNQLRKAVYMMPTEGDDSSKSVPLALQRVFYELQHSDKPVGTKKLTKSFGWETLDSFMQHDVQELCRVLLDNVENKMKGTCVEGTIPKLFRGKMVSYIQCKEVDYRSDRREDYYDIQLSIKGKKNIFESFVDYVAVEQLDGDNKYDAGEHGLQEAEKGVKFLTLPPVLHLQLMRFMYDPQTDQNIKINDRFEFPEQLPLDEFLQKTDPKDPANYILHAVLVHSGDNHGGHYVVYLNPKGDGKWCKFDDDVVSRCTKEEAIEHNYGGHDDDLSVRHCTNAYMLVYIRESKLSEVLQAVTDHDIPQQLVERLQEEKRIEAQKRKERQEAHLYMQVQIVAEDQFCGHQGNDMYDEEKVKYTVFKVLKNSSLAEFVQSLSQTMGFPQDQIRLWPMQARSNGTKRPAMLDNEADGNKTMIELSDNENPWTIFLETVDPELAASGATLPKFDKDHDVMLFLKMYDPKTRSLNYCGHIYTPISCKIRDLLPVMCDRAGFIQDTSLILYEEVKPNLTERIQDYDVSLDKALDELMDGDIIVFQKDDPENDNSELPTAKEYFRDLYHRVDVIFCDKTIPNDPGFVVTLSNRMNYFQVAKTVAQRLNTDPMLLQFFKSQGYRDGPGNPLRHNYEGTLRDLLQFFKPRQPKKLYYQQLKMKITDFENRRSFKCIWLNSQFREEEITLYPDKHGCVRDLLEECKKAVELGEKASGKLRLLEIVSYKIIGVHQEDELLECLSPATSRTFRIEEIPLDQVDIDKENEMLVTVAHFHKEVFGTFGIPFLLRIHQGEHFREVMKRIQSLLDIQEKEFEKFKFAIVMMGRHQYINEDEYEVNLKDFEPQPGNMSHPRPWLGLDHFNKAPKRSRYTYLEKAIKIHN
Nature of the experiment: USP7 Assay A (Ubitquin-Rhodamine 110 Assay). The conditions noted are these: USP7 activity in USP7 assay A and B (table does not say which assay per compound); read-out: USP7_IC50. Format: biochemical. In short, it runs like this:
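Enzyme and compound sat together for 30 min before Ub-Rh110 was added, in buffer of 20 mM Tris-HCl (pH 8.0), 1 mM GSH, 0.03% BGG and 0.01% Triton X-100.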
For the compound `O=C(c1ccc(-n2ncc3c2CNC3)cc1)N1CCC(O)(Cn2cnc3c(cnn3-c3ccc(F)cc3)c2=O)CC1` [Compound I-611], the IC50 was in the range of 1000 to 10000 nM.
For the compound `CC1(C(=O)N2CCC(O)(Cn3cnc4c(cnn4-c4ccc(-c5cnn(C6CC6)c5)cc4)c3=O)CC2)CCC1` [Compound I-1720], the IC50 was less than 200 nM.
Turning to `NC(=O)Cn1cc(-c2ccc(C(=O)N3CCC(O)(Cn4cnc5c(cnn5-c5ccc(F)cc5)c4=O)CC3)cc2)cn1` [Compound I-1002, 2-(4-(4-(4-((1-(4-fluorophenyl)-4-oxo-1H-pyrazolo[3,4-d]pyrimidin-5(4H)-yl)methyl)-4-hydroxypiperidine-1-carbonyl)phenyl)-1H-pyrazol-1-yl)acetamide], the IC50 is 1000 to 10000 nM.
With `CC(C)(CO)n1cc(-c2ccc(-n3ncc4c(=O)n(CC5(O)CCN(C(=O)c6ccc(F)cc6)CC5)cnc43)cc2)cn1` [Compound I-1616], the IC50 is 200 to 1000 nM.
Take `CC(c1ccccc1)c1nn(C)cc1C(=O)N1CCC(O)(Cn2cnc3c(cnn3-c3ccc(F)cc3)c2=O)CC1` (stereo not shown) [Compound I-1025]: the IC50 is 200 to 1000 nM.
On to `O=C(c1ccc(-c2cnn(CCO)c2)cc1)N1CCC(O)(Cn2cnc3c(cnn3-c3ccc(F)cc3)c2=O)CC1` [Compound I-1006], for which the IC50 is 1000 to 10000 nM.
As to `O=C(C1CC1)N1CCC(O)(Cn2cnc3c(cnn3-c3ccc(N4CCC(O)C4)cc3)c2=O)CC1` (stereo not shown) [Compound I-1655], the IC50 fell in the range of 1000 to 10000 nM.
`O=C(c1cccn1Cc1c(F)cccc1F)N1CCC(O)(Cn2cnc3c(cnn3-c3ccc(F)cc3)c2=O)CC1` [Compound I-559]: the IC50 is 1000 to 10000 nM.
Same read-out and setting: in the case of `Cc1ncc(C(=O)N2CCC(O)(Cn3cnc4c(cnn4-c4ccc(-n5cc(C(F)(F)F)cn5)cc4)c3=O)CC2)o1` [Compound I-1688] it was less than 200 nM; in that of `O=C(C1CC1)N1CCC(O)(Cn2cnc3c(cnn3-c3ccc(-c4cccc5oncc45)cc3)c2=O)CC1` [Compound I-1738], 1000 to 10000 nM.
Take `O=C(C[C@H](C(F)F)n1cccn1)N1CCC(O)(Cn2cnc3c(cnn3-c3ccc(N4CCCCC4)cc3)c2=O)CC1` [Compound I-821]: the IC50 is 1000 to 10000 nM.
In the case of `Cc1ncn(-c2ccc(-n3ncc4c(=O)n(CC5(O)CCN(C(=O)c6ccc(F)cc6)CC5)cnc43)cc2)n1` [Compound I-673], the IC50 lay within 1000 to 10000 nM.
Take `O=C(c1ccc(-c2cnn3c2NCCC3)cc1)N1CCC(O)(Cn2cnc3c(cnn3-c3ccc(F)cc3)c2=O)CC1` [Compound I-552]: the IC50 fell in the range of 200 to 1000 nM.
As for `O=C(C1CCC(Oc2ccccn2)CC1)N1CCC(O)(Cn2cnc3c(cnn3-c3ccc(CO)cc3)c2=O)CC1` (stereo not shown) [Compound I-852], the IC50 was less than 200 nM.
Take `O=C(C1CCC(Oc2ccc(F)cn2)CC1)N1CCC(O)(Cn2cnc3c(cnn3-c3ccccc3)c2=O)CC1` (stereo not shown) [Compound I-744]: the IC50 was in the range of 200 to 1000 nM.
On to `CN1CCN(c2ncc(C(=O)N3CCC(O)(Cn4cnc5c(cnn5-c5ccc(Cl)cc5)c4=O)CC3)o2)CC1` [Compound I-1085], for which the IC50 fell in the range of 1000 to 10000 nM.
Turning to `O=C(c1ccc(-n2cc(CO)cn2)cc1)N1CCC(O)(Cn2cnc3c(cnn3-c3ccc(F)cc3)c2=O)CC1` [Compound I-612], the IC50 is 1000 to 10000 nM.
As to `O=C(C[C@@H](C(F)F)n1ccc(F)n1)N1CCC(O)(Cn2cnc3c(cnn3-c3ccc(N4CC5CC5C4)cc3)c2=O)CC1` (stereo partly shown) [Compound I-784], the IC50 was less than 200 nM.
Turning to `O=c1c2cnn(-c3ccccc3)c2ncn1CC1(O)CCN(C(=O)[C@H]2CC[C@H](Nc3cccnc3F)CC2)CC1` [Compound I-1039b, Anti-5-((1-(4-((2-fluoropyridin-3-yl)amino)cyclohexane-1-carbonyl)-4-hydroxypiperidin-4-yl)methyl)-1-phenyl-1,5-dihydro-4H-pyrazolo[3,4-d]pyrimidin-4-one], the IC50 is less than 200 nM.
Regarding `O=C(C1CC1)N1CCC(O)(Cn2cnc3c(cnn3-c3ccc(N4CCCc5ncccc54)cc3)c2=O)CC1` [Compound I-1727], the IC50 lay in the range of 1000 to 10000 nM.
Regarding `O=C(C[C@@H](C(F)F)n1cc(F)cn1)N1CCC(O)(Cn2cnc3c(cnn3-c3ccc(F)cc3)c2=O)CC1` [Compound I-918], the IC50 was more than 10000 nM.
The same measure, in the same setting: in the case of `O=C(C[C@@H](C(F)F)n1ccc(F)n1)N1CCC(O)(Cn2cnc3c(cnn3-c3ccc(F)cc3)c2=O)CC1` [Compound I-542] it was less than 200 nM.
`C[C@@H](CC(=O)N1CCC(O)(Cn2cnc3c(cnn3-c3ccc(N4CC[C@@](C)(O)C4)cc3)c2=O)CC1)n1cccn1` [Compound I-1052]: the IC50 lay within 200 to 1000 nM.
For `CC1(C(=O)N2CCC(O)(Cn3cnc4c(cnn4-c4cccc(N5CC(F)C5)c4)c3=O)CC2)CC1` [Compound I-1680], the IC50 was 200 to 1000 nM.
With `O=C(c1ccc(-c2cnn3c2OCC3)cc1)N1CCC(O)(Cn2cnc3c(cnn3-c3ccc(F)cc3)c2=O)CC1` [Compound I-550], the IC50 lay within 200 to 1000 nM.
For the compound `O=C(C1CCC(Oc2ccncc2)CC1)N1CCC(O)(Cn2cnc3c(cnn3-c3ccc(F)cc3)c2=O)CC1` (stereo not shown) [Compound I-752], the IC50 is less than 200 nM.
`O=C(C1CCC(Oc2cccc(F)n2)CC1)N1CCC(O)(Cn2cnc3c(cnn3-c3ccccc3)c2=O)CC1` (stereo not shown) [Compound I-742]: the IC50 lay within 200 to 1000 nM.

The experiment is the same for the next values; noted with them: USP7 assay A and B (table does not say which assay per compound); Ubiquitin-Rhodamine 110 substrate; read-out: USP7_IC50.
For the compound `Cn1ncc2c(=O)n(CC3(O)CCN(C(=O)c4ccc(-c5ccc(C(=O)N6CCCCC6)cc5)cc4Cl)CC3)cnc21` [Compound I-55], the IC50 fell in the range of 1000 to 10000 nM.

Staying with this experiment, now noted: USP7 assay A and B (table does not say which assay per compound); read-out: USP7_IC50.
In the case of `CN(C)C(=O)N1CCC(O)(Cn2cnc3c(cnn3-c3ccc(NC4CC(C)(C)C4)cc3)c2=O)CC1` [Compound I-1544], the IC50 was in the range of 1000 to 10000 nM.
For `Cc1ccc(-n2ncc3c(=O)n(CC4(O)CCN(C(=O)c5ccc(OC6CN(C)C6)cc5)CC4)cnc32)cc1` [Compound I-1142], the IC50 was 1000 to 10000 nM.
For the compound `C[C@H](CC(=O)N1CCC(O)(Cn2cnc3c(cnn3-c3ccccc3)c2=O)CC1)c1ccccc1` [Compound I-72], the IC50 was less than 200 nM.
Regarding `O=C(c1ccc(F)cc1)N1CCC(O)(Cn2cnc3c(cnn3-c3cccc(OCC4CCOCC4)c3)c2=O)CC1` [Compound I-1325], the IC50 is 1000 to 10000 nM.
`CN(C)CCOc1ccc(-c2ccc(-n3ncc4c(=O)n(CC5(O)CCN(C(=O)C6CC6)CC5)cnc43)cc2)cc1` [Compound I-369]: the IC50 fell in the range of 1000 to 10000 nM.
Consider `COC1(C)CCN(c2cc(-n3ncc4c(=O)n(CC5(O)CCN(C(=O)C6CC6)CC5)cnc43)ccc2F)C1` (stereo not shown) [Compound I-633], for which the IC50 lay in the range of 1000 to 10000 nM.
As to `O=C(Nc1ccc(-n2ncc3c(=O)n(CC4(O)CCN(C(=O)C5CC5)CC4)cnc32)cc1)Nc1cccnc1` [Compound I-1448], the IC50 was in the range of 1000 to 10000 nM.
Turning to `N#Cc1ccc(Nc2ccc(-n3ncc4c(=O)n(CC5(O)CCN(C(=O)C6CC6)CC5)cnc43)cc2)nc1` [Compound I-1277], the IC50 lay within 1000 to 10000 nM.
Consider `O=C(c1ccccc1)N1CCC(O)(Cn2cnc3c(cnn3-c3ccccc3)c2=O)CC1` [Compound I-153], for which the IC50 was in the range of 1000 to 10000 nM.
For the compound `C[C@H](CC(=O)N1CCC(O)(Cn2cnc3c(cnn3-c3ccc(-c4ccccc4)cc3)c2=O)CC1)n1cccn1` [Compound I-650], the IC50 is 1000 to 10000 nM.
For `O=C(c1ccc(Oc2ccccn2)cc1)N1CCC(O)(Cn2cnc3c(cnn3-c3ccc(Cl)cc3)c2=O)CC1` [Compound I-1519], the IC50 fell in the range of 1000 to 10000 nM.
In the case of `O=C(c1ccc(F)cc1)N1CCC(O)(Cn2cnc3c(cnn3-c3ccc(F)c(CO)c3)c2=O)CC1` [Compound I-640], the IC50 was in the range of 1000 to 10000 nM.
On to `CN(C)C(=O)c1ccc(-c2cccc(-n3ncc4c(=O)n(CC5(O)CCN(C(=O)C6CC6)CC5)cnc43)c2)cc1` [Compound I-350], for which the IC50 fell in the range of 1000 to 10000 nM.
As for `CN(C)C(=O)N1CCC(O)(Cn2cnc3c(cnn3-c3ccc(OCC4CC4)cc3)c2=O)CC1` [Compound I-1289], the IC50 lay within 1000 to 10000 nM.
Regarding `O=C(C1CC1)N1CCC(O)(Cn2cnc3c(cnn3-c3ccc(NS(=O)(=O)c4cccc(Cl)c4)cc3)c2=O)CC1` [Compound I-1428], the IC50 was in the range of 1000 to 10000 nM.
For `CN(C)C(=O)N1CCC(O)(Cn2cnc3c(cnn3-c3ccc(N4CCC5(CCNCC5)CC4)cc3)c2=O)CC1` [Compound I-508], the IC50 lay within 200 to 1000 nM.
For the compound `CNS(=O)(=O)c1ccc(C(=O)N2CCC(O)(Cn3cnc4c(cnn4-c4ccccc4)c3=O)CC2)cc1` [Compound I-182], the IC50 was in the range of 1000 to 10000 nM.
As for `C[C@H](CC(=O)N1CCC(O)(Cn2cnc3c(cnn3-c3ccc(F)cc3)c2=O)CC1)n1cccn1` [Compound I-515], the IC50 was in the range of 1000 to 10000 nM.
As to `CC(O)(c1ccc(C(=O)N2CCC(O)(Cn3cnc4c(cnn4-c4ccc(F)cc4)c3=O)CC2)cc1)C(F)(F)F` (stereo not shown) [Compound I-526], the IC50 lay in the range of 1000 to 10000 nM.
For the compound `O=C(c1ccc(Cl)cc1)N1CCC(O)(Cn2cnc3c(cnn3-c3ccccc3)c2=O)CC1` [Compound I-280], the IC50 is 1000 to 10000 nM.
For the compound `O=C(c1ccc(F)cc1)N1CCC(O)(Cn2cnc3c(cnn3-c3ccccc3)c2=O)CC1` [Compound I-190], the IC50 was 200 to 1000 nM.
In the case of `CC(=O)N1CCN(c2ccc(-n3ncc4c(=O)n(CC5(O)CCN(C(=O)C6CC6)CC5)cnc43)cc2)CC1` [Compound I-1211], the IC50 is 1000 to 10000 nM.
`C[S+]([O-])c1ccc(-n2ncc3c(=O)n(CC4(O)CCN(C(=O)c5ccc(F)cc5)CC4)cnc32)cc1` (single isomer, unassigned) [Compound I-995, 5-((1-(4-fluorobenzoyl)-4-hydroxypiperidin-4-yl)methyl)-1-(4-(methylsulfinyl)phenyl)-1H-pyrazolo[3,4-d]pyrimidin-4(5H)-one]: the IC50 fell in the range of 1000 to 10000 nM.
The same measure, in the same setting: in the case of `O=C(c1cc(Cl)ccc1Cl)N1CCC(O)(Cn2cnc3c(cnn3-c3ccccc3)c2=O)CC1` [Compound I-223] it was 200 to 1000 nM; in that of `O=C(c1ccc(-c2ccc(-n3ncc4c(=O)n(CC5(O)CCN(C(=O)C6CC6)CC5)cnc43)cc2)cc1)N1CCCC1` [Compound I-333], 1000 to 10000 nM.
Regarding `CC(C)c1ccc(-n2ncc3c(=O)n(CC4(O)CCN(C(=O)C5CC5)CC4)cnc32)cc1` [Compound I-27], the IC50 was in the range of 1000 to 10000 nM.
As for `COCCN(C)Cc1ccc(-n2ncc3c(=O)n(CC4(O)CCN(C(=O)C5CC5)CC4)cnc32)cc1` [Compound I-434], the IC50 lay in the range of 1000 to 10000 nM.
